Source: paper PMC12177922, “In Vivo Ribosome-Amplified MetaBOlism, RAMBO, Effect Observed by Real Time Pulse Chase, RTPC, NMR Spectroscopy” (Biochemistry, 2025)

How the values were obtained:
Format in all cases: biochemical
LDH-A = biological target: T1, LDH-A (Escherichia coli, UniProt P52643, form not given, species not given); assay: direct 1H NMR kinetic assay (lactate methyl peak); details: substrate inhibition; 0.5 mM NADH, 0.04 nM enzyme, pH 7.5, 10 mM sodium phosphate, 50 mM KCl, 10 mM MgCl2, 10 °C, no ribosomes
T1 construct: gene ldhA; commercial recombinant enzyme (Sigma-Aldrich); authors doubt its source; printed P33232 is the quinone-dependent LldD, not an NADH-dependent LDH, so identity unresolved

PYK-F = biological target: T2, PYK-F (Escherichia coli, UniProt P0AD61); assay: direct 1H NMR kinetic assay (pyruvate methyl peak); details: 2 mM PEP, 4 mM ADP, pH 7.5, 10 °C, no ribosomes; 0-8x of 50 μg/mL
T2 construct: gene pykF; full length, 470 residues, 50 kDa monomer, N-terminal 6xHis tag kept, pET-28a(+), expressed in E. coli BL21(DE3), Ni-NTA purified, homotetramer

PFK-A = biological target: T3, PFK-A (Geobacillus stearothermophilus, UniProt P00512); assay: direct 1H NMR kinetic assay (FBP peak); details: substrate inhibition; 1 mM F6P, 1 nM enzyme, pH 7.5, 10 mM sodium phosphate, 50 mM KCl, 10 mM MgCl2, 10 °C, no ribosomes
T3 construct: gene pfkA; commercial lyophilized enzyme (Sigma-Aldrich)

| Structure (SMILES) | reduced activity (PYK-F) | also measured |
| --- | --- | --- |
| CC(=O)C(=O)O [PYR] | – | KI (LDH-A): 0.495 ± 0.074 mM |
| CN[C@@H]1[C@H](O[C@H]2[C@H](O[C@H]3[C@H](O)[C@@H](O)[C@H](N=C(N)N)[C@@H](O)[C@@H]3N=C(N)N)O[C@@H](C)[C@]2(O)C=O)O[C@@H](CO)[C@H](O)[C@H]1O [Str] | Ths, Kan and Str reduced PYK-F activity in both the presence and absence of ribosomes | – |
| NC[C@H]1O[C@H](O[C@H]2[C@H](O)[C@@H](O[C@H]3O[C@H](CO)[C@@H](O)[C@H](N)[C@H]3O)[C@H](N)C[C@@H]2N)[C@H](O)[C@@H](O)[C@@H]1O [Kan] | Ths, Kan and Str reduced PYK-F activity in both the presence and absence of ribosomes | – |
| Nc1ncnc2c1ncn2[C@@H]1O[C@H](COP(=O)(O)OP(=O)(O)OP(=O)(O)O)[C@@H](O)[C@H]1O [ATP] | – | KI (PFK-A): 5.6 ± 1.2 mM |
